# Columns and labels:
# [1] = tested on: barnyardgrass; assay: Test A preemergence; assay type: in vivo, Echinochloa crus-galli; settings: for Plant response rating, Barnyardgrass / Barnyardgrass plant response rating: 0 to 100 scale where 0 is no effect and 100 is complete control; for Barnyardgrass plant response rating: 500 g ai/ha
# In short: (§1)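 Scoring: eye-based comparison with untreated controls, 0 for no effect through 100 for complete control, at about day 10. Treatments: directed soil spray preemergence; foliar spray postemergence on 2–10 cm plants at the one- to two-leaf stage. Medium: loam soil with sand.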
# [2] = tested on: pigweed; assay: Test A preemergence; assay type: in vivo, Amaranthus retroflexus; settings: for Pigweed plant response rating: 500 g ai/ha
# In short: as §1
# [3] = tested on: barnyardgrass; assay: Test A postemergence; assay type: in vivo, Echinochloa crus-galli
# In short: as §1
# [4] = tested on: giant foxtail; assay: Test A postemergence; assay type: in vivo, Setaria faberii
# In short: as §1
# [5] = tested on: pigweed; assay: Test A postemergence; assay type: in vivo, Amaranthus retroflexus
# In short: as §1
# [6] = tested on: wheat; assay: Test A postemergence; assay type: in vivo, Triticum aestivum
# In short: as §1
# [7] = tested on: corn; assay: Test A postemergence; assay type: in vivo, Zea mays
# In short: as §1
# [8] = tested on: rice; assay: Test B flooded paddy test; assay type: in vivo, Oryza sativa; settings: Flood, 250 g ai/ha; 0 to 100 scale where 0 is no effect and 100 is complete control
# In short: (§2)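 Evaluation is visual, against untreated controls, 13 to 15 days after treatment. Before treatment, plants reached the 2-leaf stage; pots were then flooded 3 cm deep, compound was added to the water, and that level was maintained. Ratings run 0 to 100, with 100 meaning complete control.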
# [9] = tested on: sedge, umbrella; assay: Test B flooded paddy test; assay type: in vivo, Cyperus difformis; settings: Flood, 250 g ai/ha; 0 to 100 scale where 0 is no effect and 100 is complete control
# In short: as §2
# [10] = tested on: Heteranthera limosa; assay: Test B flooded paddy test; assay type: in vivo; settings: Flood, 250 g ai/ha; 0 to 100 scale where 0 is no effect and 100 is complete control
# In short: as §2
# [11] = tested on: wheat; assay: Test A preemergence; assay type: in vivo, Triticum aestivum; settings: for Wheat plant response rating (0 to 100 scale): 125 g ai/ha; for Wheat plant response rating: 500 g ai/ha, 0 to 100 scale where 0 is no effect and 100 is complete control
# In short: as §1
# [12] = tested on: corn; assay: Test A preemergence; assay type: in vivo, Zea mays; settings: for Corn plant response rating: 500 g ai/ha
# In short: as §1
# [13] = 125 g ai/ha, 0 to 100 scale where 0 is no effect and 100 is complete control
# [14] = 0 to 100 scale where 0 is no effect and 100 is complete control
# [15] = 500 g ai/ha, 0 to 100 scale where 0 is no effect and 100 is complete control
# [16] = 125 g ai/ha, 0 to 100 scale, 0 no effect, 100 complete control
smiles,measurement,setting,value
N#Cc1cnn(-c2c(C#N)cccc2Oc2ncc(Br)cn2)c1 [Compound 135],"Plant response rating, Barnyardgrass",[1]; 125 g ai/ha,40
same,Barnyardgrass plant response rating,[1],90
same,"Plant response rating, Pigweed",[2]; [13],100
same,Pigweed plant response rating,[2]; [14],100
same,Barnyardgrass plant response rating,[3]; [13],40
same,"Plant response rating, Barnyardgrass",[3]; [15],100
same,"Foxtail, Giant plant response rating",[4]; [13],70
same,"Plant response rating, Foxtail, Giant",[4]; [15],100
same,Pigweed plant response rating,[5]; [13],70
same,"Plant response rating, Pigweed",[5]; [15],100
same,Wheat plant response rating,[6]; [13],10
same,"Plant response rating, Wheat",[6]; [15],60
same,Corn plant response rating,[7]; [13],10
same,"Plant response rating, Corn",[7]; [15],80
same,"Plant response rating, Rice",[8],0
same,"Plant response rating, Sedge, Umbrella",[9],75
same,"Plant response rating, Ducksalad",[10],70
FC(F)c1cccc(Oc2ncc(Cl)cn2)c1-n1cc(C(F)(F)F)cn1 [Compound 170],"Plant response rating, Barnyardgrass",[1]; 125 g ai/ha,90
same,Barnyardgrass plant response rating,[1],100
same,Pigweed plant response rating (0 to 100 scale),[2]; 125 g ai/ha,100
same,Pigweed plant response rating,[2]; [14],100
same,Wheat plant response rating (0 to 100 scale),[11],20
same,Wheat plant response rating,[11],20
same,"Plant response rating, Corn",[12]; [13],0
same,Corn plant response rating,[12]; [14],20
same,Barnyardgrass plant response rating,[3]; [13],70
same,"Plant response rating, Barnyardgrass",[3]; [15],90
same,"Foxtail, Giant plant response rating",[4]; [13],70
same,"Plant response rating, Foxtail, Giant",[4]; [15],90
same,Pigweed plant response rating,[5]; [13],100
same,"Plant response rating, Pigweed",[5]; [15],100
same,Wheat plant response rating,[6]; [13],30
same,"Plant response rating, Wheat",[6]; [15],70
same,Corn plant response rating,[7]; [13],80
same,"Plant response rating, Corn",[7]; [15],90
same,"Plant response rating, Rice",[8],50
same,"Plant response rating, Sedge, Umbrella",[9],90
same,"Plant response rating, Ducksalad",[10],95
NC(=S)c1cccc(Oc2ncc(Cl)cn2)c1-n1cc(Cl)cn1 [Compound 292],"Barnyardgrass plant response rating (0 to 100 scale, 0 is no effect, 100 is complete control)",[1]; 125 g ai/ha,80
same,Barnyardgrass plant response rating,[1],100
same,Pigweed plant response rating (0 to 100 scale),[2]; 125 g ai/ha,100
same,Pigweed plant response rating,[2]; [14],100
same,Wheat plant response rating (0 to 100 scale),[11],10
same,Wheat plant response rating,[11],30
same,Corn plant response rating (0 to 100 scale),[12]; 125 g ai/ha,20
same,Corn plant response rating,[12]; [14],30
same,"Plant response rating, Barnyardgrass",[3]; [16],60
same,"Plant response rating, Barnyardgrass",[3]; [15],90
same,"Plant response rating, Foxtail, Giant",[4]; [16],70
same,"Plant response rating, Foxtail, Giant",[4]; [15],90
same,"Plant response rating, Pigweed",[5]; [16],100
same,"Plant response rating, Pigweed",[5]; [15],100
same,"Plant response rating, Wheat",[6]; [16],10
same,"Plant response rating, Wheat",[6]; [15],60
same,"Plant response rating, Corn",[7]; [16],50
same,"Plant response rating, Corn",[7]; [15],80
same,"Plant response rating, Rice",[8],20
same,"Plant response rating, Sedge, Umbrella",[9],75
same,"Plant response rating, Ducksalad",[10],45

# — patent publication US9695155B2, “Herbicidal substituted pyrimidinyloxy benzene compounds” (E. I. DU PONT DE NEMOURS AND COMPANY, priority 2013, dated 2017)
